Laboratory results from patent publication US20130309306A1, “INTRAPULMONARY BENZODIAZEPINE FOR THE TREATMENT AND PREVENTION OF SEIZURES” (priority 2010, published 2013).
Marks after values point to notes of the source that are not given here.

Test system: PTZ-induced convulsions
Experiment: PTZ-induced convulsions in mice (PTZ 80 mg/kg i.p.)
Assay type: in vivo
Procedure: Male NIH Swiss mice (22-30 g) were kept in a vivarium under controlled environmental conditions (temperature, 22-26° C.; humidity, 40-50%) with an artificial 12-h light/dark cycle. Wood chips were used in all cages. Experiments were performed during the light phase of the light/dark cycle after a minimum 30-min period of acclimation to the experimental room. The animal facilities were fully accredited by the Association for Assessment and Accreditation of Laboratory Animal Care. All studies were performed under protocols approved by the Animal Care and Use Committee of the University of California, Davis in strict compliance with the Guide for the Care and Use of Laboratory Animals of the National Research Council (National Academy Press, Washington, D.C.).
Intratracheal administration of midazolam was carried out as described by Oka et al. (2006). In brief, mice were briefly anesthetized using isoflurane anesthesia (4% isoflurane). The animals were immediately placed on a surgical board held at a 60° angle. The animal's mouth was kept open by hanging the upper incisors on a hook to facilitate detection of the epiglottis. An operating light was used to illuminate the view of the pharynx after displacement of the tongue with a spatula. A syringe fitted with a blunted 24-gauge/25-mm was pushed against the soft palate to enter the trachea past the vocal cords. When the tracheal cartilage ring is felt, the needle is considered properly placed within the tracheal lumen. The needle was inserted almost to the bottom of the trachea. When the animals began to show signs that the anesthesia was waning, the liquid sample was gently injected at a dose volume of 0.25 ml/kg. After the injection of solution, air (1 ml syringe) was blown inside the lungs to uniformly distribute the drug in the lungs. Following the injection, the needle was gently removed and animal was held vertically for 2 min to facilitate the downward movement of liquid in the lungs. The animal was allowed 10 min to recover fully from the anesthesia as confirmed by normal spontaneous exploratory behavior. Seizure testing then commenced. For each of the seizure tests, we verified that there was no residual effect of the anesthetic on responsiveness.
PTZ was administered intraperitoneally at a dose of 80 mg/kg, which causes clonic convulsions in >97% of mice (Dhir et al., 2006). […] The time of onset of myoclonic jerks, clonus and tonic extension; and the incidence of lethality was recorded.
Results are expressed as mean±S.E.M.; the significance of the difference in the responses of treatment groups with respect to control is based on one-way analysis of variance (ANOVA) followed by specific post-hoc comparisons using Tukey's test. Differences were considered statistically significant when the probability of error was less than 0.05 (P<0.05). Control values in the threshold tests were the mean threshold values for vehicle-treated groups.

[1] = intraperitoneal 100 μg/kg, pretreatment 10 min
[2] = intraperitoneal 500 μg/kg, pretreatment 10 min
[3] = intraperitoneal 750 μg/kg, pretreatment 10 min
[4] = intraperitoneal 1000 μg/kg, pretreatment 10 min
[5] = intratracheal 12.5 μg/kg, pretreatment 10 min
[6] = intratracheal 25 μg/kg, pretreatment 7 min
[7] = intratracheal 25 μg/kg, pretreatment 10 min
[8] = intratracheal 50 μg/kg, pretreatment 7 min
[9] = intratracheal 50 μg/kg, pretreatment 10 min
[10] = intratracheal 100 μg/kg, pretreatment 7 min
[11] = intratracheal 100 μg/kg, pretreatment 10 min
[12] = intratracheal 200 μg/kg, pretreatment 10 min

SMILES: Cc1ncc2n1-c1ccc(Cl)cc1C(c1ccccc1F)=NC2 [Midazolam, midazolam]
- Mortality [1]: 66.67* percent
- Percent showing clonus [1]: 100%
- Percent showing extensor [1]: 66.67* percent
- Percent showing myoclonic jerks [1]: 100%
- Mortality [2]: 0* percent
- Percent showing clonus [2]: 83.33%
- Percent showing extensor [2]: 0* percent
- Percent showing myoclonic jerks [2]: 100%
- Mortality [3]: 0* percent
- Percent showing clonus [3]: 33.33* percent
- Percent showing extensor [3]: 0* percent
- Percent showing myoclonic jerks [3]: 83.33%
- Mortality [4]: 0* percent
- Percent showing clonus [4]: 0* percent
- Percent showing extensor [4]: 0* percent
- Percent showing myoclonic jerks [4]: 50* percent
- Mortality [5]: 83.33%
- Percent showing clonus [5]: 100%
- Percent showing extensor [5]: 83.33%
- Percent showing myoclonic jerks [5]: 100%
- Mortality [6]: 0* percent
- Percent showing clonus [6]: 83.33%
- Percent showing extensor [6]: 0* percent
- Percent showing myoclonic jerks [6]: 100%
- Mortality [7]: 50* percent
- Percent showing clonus [7]: 100%
- Percent showing extensor [7]: 50* percent
- Percent showing myoclonic jerks [7]: 100%
- Mortality [8]: 0* percent
- Percent showing clonus [8]: 50* percent
- Percent showing extensor [8]: 0* percent
- Percent showing myoclonic jerks [8]: 66.66* percent
- Mortality [9]: 16.66* percent
- Percent showing clonus [9]: 66.66* percent
- Percent showing extensor [9]: 16.66* percent
- Percent showing myoclonic jerks [9]: 83.33%
- Mortality [10]: 0* percent
- Percent showing clonus [10]: 0* percent
- Percent showing extensor [10]: 0* percent
- Percent showing myoclonic jerks [10]: 0* percent
- Mortality [11]: 0* percent
- Percent showing clonus [11]: 50* percent
- Percent showing extensor [11]: 0* percent
- Percent showing myoclonic jerks [11]: 50* percent
- Mortality [12]: 0* percent
- Percent showing clonus [12]: 0* percent
- Percent showing extensor [12]: 0* percent
- Percent showing myoclonic jerks [12]: 0* percent
